According to US6596497B1, “Screening of antiviral compounds targeted to the HIV-1 gp41 core structure” (New York Blood Center, Inc., priority 1999, dated 2003):
≈ marks a conversion by molar mass, not a printed value. Like-named read-outs stand apart in the source and are kept apart here.

What was measured:
[1] = target: T1, N-36/C-34 complex (HIV-1 gp41 core) (Human immunodeficiency virus type 1 group M subtype B, UniProt P04578); test: biochemical; type: binding; conditions: for Inhibitory activity on complex formation by N-36 and C-34 (in words): no concentration stated; for Inhibition of NC-1 detectable complex formation by N-36 and C-34 (in words): compounds at 10 μg/ml, FIG. 13
T1 construct: Peptides derived from the NHR and CHR regions of gp41, designated N- and C-peptides; made in house; host or cells: chemical synthesis (solid-phase FMOC)
T1 sequence (P04578 546-581, one chain of several): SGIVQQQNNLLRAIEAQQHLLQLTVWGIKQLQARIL
Protocol: For detection of peptide complexes, a direct and a sandwich ELISA were used. In the direct ELISA, the N- and C-peptides were mixed at equimolar concentration in PBS and diluted in coating buffer. Then, the peptide complexes were directly coated onto the wells of microplate. In the sandwich ELISA, the plate was coated with IgG (10 μg/ml) purified from rabbit antisera directed against N36(L6)C34, followed by the addition of the peptide complexes formed by mixing N- and C-peptides in PBS in equimolar concentrations. To screen for antiviral agents, compounds were pre-incubated with N-peptides at 37° C. for 30 minutes before mixing with the C-peptides. The binding of the peptide complexes to the antibodies was then detected as described above.
The percentage of inhibition by the compounds of the binding of NC-1 to the peptide complexes was calculated as described in Jiang, S., K. Lin, and A. R. Neurath, 1991, “Enhancement of human immunodeficiency virus type-1 (HIV-1) infection by antisera to peptides from the envelope glycoproteins gp120/gp41”, J. Exp. Med., 174, 1557-1563.
A sandwich ELISA was established to screen for compounds that interfere with the formation of the N-36/C-34 complex. N-36 (2 μM) was preincubated with compounds at graded concentrations at 37° C. for 30 minutes, followed by the addition of C-34 (2 μM). After incubation at 37° C. for 30 minutes, the mixture was added to wells of a 96-well polystyrene plate (Immulon I, Dynatech Laboratories, Inc., Chantilly, Va.) which were precoated with IgG (10 μg/ml) purified from rabbit antisera directed against N36(L6)C34. […] Absorbance at 450 nm (A450) was read using an ELISA reader (Dynatech Laboratories, Inc., Chantilly, Va.). The percentage of inhibition by the compounds of the binding of NC-1 to the peptide complexes was calculated as described in Jiang S., K. Lin, and A. R. Neurath, 1991, “Enhancement of human immunodeficiency virus type-1 (HIV-1) infection by antisera to peptides from the envelope glycoproteins gp120/gp41”, J. Exp. Med., 174, 1557-1563. The concentration for 50% inhibition (IC50) was calculated using a computer program, designated Calcusyn (Chou, T.-C., 1991, “The median-effect principle and the combination index for quantitation of synergism and antagonism. In Synergism and Antagonism in Chemotherapy”, T.-C. Chou and D. C. Rideout, editors, Academic Press, San Diego, 61-102).

[2] = In vitro cytotoxicity, XTT; type: cell-based; conditions: human
Protocol: The in vitro cytotoxicity for MT-2 cells of the compounds was determined in 96-well plates using the XTT dye to measure cell viability in the absence of virus. Ten μl of 5% TRITON X-100 were added to the wells corresponding to positive controls (“P”) and 10 μl medium was added to wells corresponding to negative controls (“N”). The percent cytotoxicity was calculated using the following formula: % cytotoxicity=[(E−N)/(P−N)]×100%, wherein “E” represents experimental data in the presence of compounds. The concentration corresponding to 50% cytotoxicity (CC50) for MT-2 cells was calculated using the Calcusyn computer program. The selectivity index (S.I.=CC50/IC50) for each compound was calculated.

HIV-1IIIB = test: HIV-1-mediated cytopathic effect (CPE), XTT; type: cell-based; conditions: for selectivity ratio at 6 days: human, read-out: Selective Index (S.I.) = CC50/IC50 for CPE
Protocol: The inhibitory activity of the compounds was determined by a calorimetric method based on protection of cells against HIV-1-mediated CPE, as described in Jiang et al., (1991), J. Exp. Med., 174, 1557-1563. 1×10^4 MT-2 cells in 96-well plates were infected with diluted HIV-1IIIB in 200 μl RPMI 1640 medium containing 10% FBS in the presence of compounds at graded concentrations. After 1 hour, 24 hours and 4 days, half of the culture media were changed. On the sixth day post infection, an indicator, XTT tetrazolium dye (1 mg/ml; 50 μl/well; PolySciences, Inc., Warrington, Pa.), was added to the cells. After 4 hours, the soluble intracellular formazan was determined calorimetrically at 450 nm. The percent of inhibition of CPE and the IC50 values were calculated as described above.

[3] = tested on: H9/HIV-1IIIB cells and MT-2 cells; test: cells; type: cell-based; conditions: for IC50: Human immunodeficiency virus 1, MT2, 2 h, read-out: IC50 ± SD Cell fusion; for Inhibitory activity on HIV-1-mediated cell fusion (in words): no concentration stated; for Inhibition of HIV-1-mediated cell fusion (in words): compounds at 10 μg/ml, FIG. 13
Protocol: A dye transfer assay was used for detection of HIV-1-mediated cell fusion as described in Jiang et al., Nature, 365, 113 (1993). H9/HIV-1IIIB cells were labeled with a fluorescent reagent, 2′,7′-bis-(2-carboxyethyl)-5-and-6-carboxyfluorescein acetoxyethyl ester (BCECF-AM), (Molecular Probes, Inc., Eugene, Oreg.) and incubated with MT-2 cells (ratio=1:10) in a 96-well plate at 37° C. for 2 hours in the presence or absence of peptides or compounds tested. The fused and unfused BCECF-labeled HIV-1 infected cells were counted under an inverted fluorescence microscope (Zeiss, Germany) with an eyepiece micrometer discs. The percentage of inhibition of cell fusion was calculated as described in Jiang et al., 1993, Nature, 365, 113.
A dye transfer assay was used for detection of HIV-1 mediated cell fusion as described in Jiang, S., K. Lin, N. Strick, and A. R. Neurath, 1993, Inhibition of HIV-1 infection by a fusion domain binding peptide from HIV-1 envelope glycoprotein gp41, Biochem. Biophys. Res. Commun., 195, 533-538.
H9/HIV-1IIIB cells were labeled with a fluorescent reagent, 2′,7′-bis-(2-carboxyethyl)-5-and-6-carboxyfluorescein acetoxyethyl ester (BCECF-AM) (Molecular Probes, Inc., Eugene, Oreg.) and then incubated with MT-2 cells (ratio=1:10) in 96-well plates at 37° C. for 2 hours in the presence or absence of the compounds tested. The fused and unfused BCECF-labeled HIV-1 infected cells were counted under an inverted fluorescence microscope (Zeiss, Germany) with an eyepiece micrometer disc. The percentage of inhibition of cell fusion and the IC50 values were calculated as described in Jiang et al., (1993), Biochem. Biophys. Res. Commun., 195, 533-538.

[4] = 50% cytotoxic concentration, MT-2 cells, no virus, read-out: CC50 ± SD
[5] = Human immunodeficiency virus 1, MT2, read-out: IC50 ± SD CPE
[6] = Human immunodeficiency virus 1, MT2, MT-2 cells, sixth day post infection, read-out: IC50 ± SD CPE

Compound | IC50 [1] [µM] | Inhibitory activity on complex formation by N-36 and C-34 (in words) [1] | CC50 [2, 4] [µg/mL] | IC50 (HIV-1IIIB; [5]) [µg/mL] | selectivity ratio at 6 days (HIV-1IIIB; MT-2 cells) | Inhibitory activity on HIV-1-mediated CPE (in words) (HIV-1IIIB; no concentration stated) | IC50 [3] [µg/mL] | Inhibitory activity on HIV-1-mediated cell fusion (in words) [3] | CC50 [2] [µg/mL] | IC50 (HIV-1IIIB; [6]) [µg/mL] | Inhibition of NC-1 detectable complex formation by N-36 and C-34 (in words) [1] | Inhibition of HIV-1-mediated cell fusion (in words) [3]
Cc1ccc(N=Nc2c(S(=O)(=O)O)cc3cc(S(=O)(=O)O)cc(Nc4nc(Cl)nc(Nc5ccccc5)n4)c3c2O)c(S(=O)(=O)O)c1 [ADS-J2, 5-[(4-chloro-6-phenylamino-1,3,5-triazine-2-yl)-amino]-4-hydroxy-3-[(4-methyl-6-sulfophenyl)azo]-2,7-naphthalene disulfonic acid] | 4.4 | promising inhibitory activity | 290 ± 12.4 (≈ 402 µM) | 30.8 ± 6.74 (≈ 42.6 µM) | 9.43 | promising inhibitory activity | 21.9 ± 1.38 (≈ 30.3 µM) | promising inhibitory activity |  |  |  | 
C=CC1C[N@@]2CCC1C[C@@H]2C(OC(=O)c1ccc(OC)cc1)c1ccnc2ccccc12 (stereo partly shown) [ADS-J4] | > 233 |  |  |  | ≤ 1 |  | > 100 |  | 74.1 ± 0.76 (≈ 173 µM) | > 100 |  | 
CC(c1nc2ccc(Cl)cc2c(=O)n1Cc1ccccc1)N(C(=O)c1ccc([N+](=O)[O-])cc1)c1ccc(F)cc1 (stereo not shown) [ADS-J5] | > 180 |  | 30.2 ± 4.84 (≈ 54.2 µM) | > 100 | ≤ 1 |  | > 100 |  |  |  |  | 
C/C(=N/OC(=O)NS(=O)(=O)c1ccc(C)cc1)c1cc2ccccc2oc1=O [ADS-J6] | > 250 |  | 286 ± 19.3 (≈ 714 µM) | > 100 | ≤ 1 |  | > 100 |  |  |  |  | 
CCC1C[N@@]2CCC1C[C@@H]2C(OC(=O)c1ccccc1Cl)c1ccnc2ccc(OC)cc12 (stereo partly shown) [ADS-J7] | > 215 |  |  |  | ≤ 1 |  | 59.8 ± 8.69 (≈ 129 µM) |  | 41.3 ± 2.38 (≈ 88.9 µM) | > 100 |  | 
O=C(Nc1cc([N+](=O)[O-])ccc1-c1ccc([N+](=O)[O-])cc1)c1ccc([N+](=O)[O-])cc1Cl [ADS-J9] | > 226 |  | 47.2 ± 5.48 (≈ 107 µM) | > 100 | ≤ 1 |  | > 100 |  |  |  |  | 
O=C(Nc1ccc(Cl)c(Cl)c1)O/N=C(/c1ccccc1)c1ccc(-c2ccccc2)cc1 [ADS-J10] | > 217 |  | 74.7 ± 6.04 (≈ 162 µM) | > 100 | ≤ 1 |  | > 100 |  |  |  |  | 
Cc1ccc(N(C(=O)Nc2ccccc2)C(C)c2nc3ccccc3c(=O)[nH]2)c(C)c1 (stereo not shown) [ADS-J11] | > 242 |  | 40.8 ± 1.67 (≈ 98.8 µM) | > 100 | ≤ 1 |  | > 100 |  |  |  |  | 
Cc1ccc(N(C(=O)Nc2cccc(Cl)c2)C(C)c2nc3ccccc3c(=O)[nH]2)c(C)c1 (stereo not shown) [ADS-J12] | > 224 |  | 54 ± 8.14 (≈ 121 µM) | > 100 | ≤ 1 |  | > 100 |  |  |  |  | 
Cc1ccc(N(C(=O)Nc2ccc(Cl)c(Cl)c2)C(C)c2nc3ccccc3c(=O)[nH]2)c(C)c1 (stereo not shown) [ADS-J13, N′-(3,4-dichlorophenyl)-N-[1-(4-oxo-3,4-dihydroquinazolin-2-yl)ethyl]-N-2,4-dimethyl phenylurea] | > 208 |  | 39.2 ± 7.6 (≈ 81.5 µM) | > 100 | ≤ 1 |  | > 100 | does not inhibit |  |  |  | 
CC(Nc1ccccc1Cl)c1nc2ccccc2c(=O)n1Cc1ccccc1 (stereo not shown) [ADS-J14] | > 256 |  | 86.8 ± 5.79 (≈ 223 µM) | > 100 | ≤ 1 |  | > 100 |  |  |  |  | 
COC(=O)c1cc(C(=O)OC)cc(N(C(=O)Nc2ccc(Cl)c(Cl)c2)C(C)c2nc3ccccc3c(=O)n2Cc2ccccc2)c1 (stereo not shown) [ADS-J15] | > 152 |  | 20.9 ± 0.67 (≈ 31.8 µM) | > 100 | ≤ 1 |  | > 100 |  |  |  |  | 
O=P(CCP(c1ccccc1)c1ccccc1)(c1ccccc1)c1ccccc1 [ADS-J16] | > 241 |  | 28.9 ± 5.97 (≈ 69.7 µM) | > 100 | ≤ 1 |  | 52.3 ± 2.85 (≈ 126 µM) |  |  |  |  | 
O=C(O)c1ccc(-c2c3nc(c(-c4ccc(C(=O)O)cc4)c4ccc([nH]4)c(-c4ccc(C(=O)O)cc4)c4nc(c(-c5ccc(C(=O)O)cc5)c5ccc2[nH]5)C=C4)C=C3)cc1 [MTCPP, meso-tetra(4-carboxyphenyl)porphyrin, reference compound] |  | some inhibitory activity |  |  |  |  |  |  |  |  | partially inhibited | partially inhibited
O=S(=O)(O)c1ccc(-c2c3nc(c(-c4ccc(S(=O)(=O)O)cc4)c4ccc([nH]4)c(-c4ccc(S(=O)(=O)O)cc4)c4nc(c(-c5ccc(S(=O)(=O)O)cc5)c5ccc2[nH]5)C=C4)C=C3)cc1 [MTSPP, meso-tetra(4-sulphonatophenyl)porphyrin, reference compound] |  | some inhibitory activity |  |  |  |  |  |  |  |  | partially inhibited | partially inhibited
C=Cc1c(C)c2cc3nc(c(CC(=O)O)c4[nH]c(cc5nc(cc1[nH]2)C(C)=C5CC)c(C)c4C(=O)O)[C@@H](CCC(=O)O)[C@@H]3C [chlorin e6, reference compound] |  | some inhibitory activity |  |  |  |  |  |  |  |  | partially inhibited | partially inhibited
[Tyr5,12, Lys7]-polyphemusin II [Compound T-22, reference compound] |  | do not inhibit the complex formation |  |  |  |  |  |  |  |  |  | 
